Measured values taken from US11001590B2, “Pyrazolopyrimidine derivatives” (BAYER ANIMAL HEALTH GMBH, priority 2016, dated 2021).

Legend:
C. elegans Slo-1a = C. elegans Slo-1a (Caenorhabditis elegans, UniProt Q95V25); experiment: In vitro assay 1: C. elegans Slo-1a, action at a recombinant C. elegans CHO cell line (membrane potential measurement)
[1] = system: Dirofilaria immitis microfilariae; experiment: In vitro assay 3: Dirofilaria immitis microfilariae (DIROIM L1), motility; details: 72 h, reduction of motility vs negative control, 72 h incubation
[2] = log P by HPLC on reversed phase columns (Method L0; [a] acidic, [b] neutral range)
Procedure: Calibration was done with straight-chain alkan-2-ones (with 3 to 16 carbon atoms) with known log P values (measurement of log P values using retention times with linear interpolation between successive alkanones). Lambda-max-values were determined using UV-spectra from 200 nm to 400 nm and the peak values of the chromatographic signals.

Chain of C. elegans Slo-1a (Q95V25 whole entry): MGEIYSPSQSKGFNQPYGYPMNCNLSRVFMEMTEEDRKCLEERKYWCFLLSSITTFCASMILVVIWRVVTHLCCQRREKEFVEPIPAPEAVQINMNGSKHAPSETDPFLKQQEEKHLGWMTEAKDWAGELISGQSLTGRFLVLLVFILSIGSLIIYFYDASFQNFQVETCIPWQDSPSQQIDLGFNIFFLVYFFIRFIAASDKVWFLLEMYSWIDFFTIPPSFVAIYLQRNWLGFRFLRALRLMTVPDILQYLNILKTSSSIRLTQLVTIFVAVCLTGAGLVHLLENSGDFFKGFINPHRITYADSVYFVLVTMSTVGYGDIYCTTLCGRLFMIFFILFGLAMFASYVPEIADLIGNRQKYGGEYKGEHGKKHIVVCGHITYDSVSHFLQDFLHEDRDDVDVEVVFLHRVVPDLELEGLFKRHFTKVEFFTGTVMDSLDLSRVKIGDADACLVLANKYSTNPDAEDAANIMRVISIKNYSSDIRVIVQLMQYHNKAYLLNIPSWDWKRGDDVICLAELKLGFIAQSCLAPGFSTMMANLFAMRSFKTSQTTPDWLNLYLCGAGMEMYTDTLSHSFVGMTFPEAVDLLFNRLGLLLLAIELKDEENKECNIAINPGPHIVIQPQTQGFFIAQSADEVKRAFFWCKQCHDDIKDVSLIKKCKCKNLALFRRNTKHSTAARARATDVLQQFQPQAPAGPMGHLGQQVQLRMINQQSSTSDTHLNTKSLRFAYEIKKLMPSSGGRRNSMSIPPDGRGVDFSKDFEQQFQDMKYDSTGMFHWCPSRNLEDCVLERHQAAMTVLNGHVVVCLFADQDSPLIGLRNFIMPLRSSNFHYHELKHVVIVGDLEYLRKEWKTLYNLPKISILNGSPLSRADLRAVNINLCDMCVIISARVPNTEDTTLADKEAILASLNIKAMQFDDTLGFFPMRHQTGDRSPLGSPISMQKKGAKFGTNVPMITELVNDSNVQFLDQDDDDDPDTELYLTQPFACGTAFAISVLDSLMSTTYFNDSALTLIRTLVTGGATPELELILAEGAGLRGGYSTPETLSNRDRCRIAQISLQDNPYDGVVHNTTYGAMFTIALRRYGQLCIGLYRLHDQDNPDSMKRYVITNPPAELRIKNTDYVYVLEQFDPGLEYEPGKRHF

CC(C)c1c(C(=O)N[C@H]2CCc3ccccc32)cnc2c(-c3cccc(F)c3)c(C(F)(F)F)nn12 [Example 157]
EC50 (C. elegans Slo-1a): 100 nM | EC50 [1]: < 10 µg/mL | chromatographic logP [2]: 5.02

CC(C)c1c(C(=O)N[C@H]2CCc3ccccc32)cnc2c(-c3cccc(OC(F)(F)F)c3)c(C(F)(F)F)nn12 [Example 149]
EC50 (C. elegans Slo-1a): 63.1 nM | EC50 [1]: < 10 µg/mL | chromatographic logP [2]: 5.55

COc1cccc(-c2c(C(F)F)nn3c(C(C)C)c(C(=O)N[C@H]4CCc5ccccc54)cnc23)c1 [Example 428]
EC50 (C. elegans Slo-1a): 25.1 nM | EC50 [1]: < 0.1 µg/mL | chromatographic logP [2]: 4.42

Cc1nn2c(C(C)C)c(C(=O)N[C@H]3CCc4ccccc43)cnc2c1-c1cccc(N2CCCCC2)c1 [Example 356]
EC50 (C. elegans Slo-1a): 158 nM | EC50 [1]: < 10 µg/mL | chromatographic logP [2]: 3.25

Cc1nn2c(C(C)C)c(C(=O)N[C@H]3CCCc4ccccc43)cnc2c1-c1cncc(Cl)c1 [Example 362]
EC50 (C. elegans Slo-1a): 100 nM | EC50 [1]: < 10 µg/mL | chromatographic logP [2]: 4.52

COc1cc(-c2c(C(F)(F)F)nn3c(C(C)C)c(C(=O)N[C@H]4CCc5ccccc54)cnc23)ccc1F [Example 160]
EC50 (C. elegans Slo-1a): 100 nM | EC50 [1]: < 10 µg/mL | chromatographic logP [2]: 4.89

CC(C)c1c(C(=O)N[C@H]2CCc3ccccc32)cnc2c(-c3cccc(OC(F)(F)F)c3)c(C(F)F)nn12 [Example 431]
EC50 (C. elegans Slo-1a): 6.31 nM | EC50 [1]: < 10 µg/mL | chromatographic logP [2]: 5.18

Cc1nn2c(C(C)C)c(C(=O)N[C@H]3CCCc4ccccc43)cnc2c1-c1ccc(F)c(F)c1 [Example 102]
EC50 (C. elegans Slo-1a): 63.1 nM | EC50 [1]: < 10 µg/mL | chromatographic logP [2]: 5.14

Cc1nn2c(C(C)C)c(C(=O)N[C@H]3CCOc4ccccc43)cnc2c1-c1ccc2c(c1)OC(F)(F)O2 [Example 251]
EC50 (C. elegans Slo-1a): 3.16 nM | EC50 [1]: < 0.1 µg/mL | chromatographic logP [2]: 5.03

CC(C)c1c(C(=O)N[C@H]2CCc3ccccc32)cnc2c(-c3cncc(Cl)c3)c(C(F)(F)F)nn12 [Example 156]
EC50 (C. elegans Slo-1a): 631 nM | EC50 [1]: < 10 µg/mL | chromatographic logP [2]: 4.7

Cc1nn2c(C(C)C)c(C(=O)N[C@H]3CCOc4ccccc43)cnc2c1-c1ccc2c(c1)OCO2 [Example 239]
EC50 (C. elegans Slo-1a): 31.6 nM | EC50 [1]: < 10 µg/mL | chromatographic logP [2]: 4.08

Cc1nn2c(C(C)C)c(C(=O)N[C@H]3CCOc4ccccc43)cnc2c1-c1cnc(F)c(F)c1 [Example 221]
EC50 (C. elegans Slo-1a): 10 nM | EC50 [1]: < 1 µg/mL | chromatographic logP [2]: 4.13

Cc1nn2c(C(C)C)c(C(=O)N[C@H]3CCc4ccccc43)cnc2c1-c1ccc(OC(F)(F)F)cc1 [Example 331]
EC50 (C. elegans Slo-1a): 251 nM | EC50 [1]: < 10 µg/mL | chromatographic logP [2]: 5.41

COc1cc(-c2c(C)nn3c(C4CC4)c(C(=O)N[C@H]4CCc5ccccc54)cnc23)cc(C(F)(F)F)c1 [Example 423]
EC50 (C. elegans Slo-1a): 63.1 nM | EC50 [1]: < 10 µg/mL | chromatographic logP [2]: 4.7

Cc1nn2c(C(C)C)c(C(=O)N[C@H]3CCOc4ccccc43)cnc2c1-c1cccc(Br)c1 [Example 204]
EC50 (C. elegans Slo-1a): 15.8 nM | EC50 [1]: < 0.1 µg/mL | chromatographic logP [2]: 5.02

Cc1nn2c(C(C)C)c(C(=O)N[C@H]3CCc4ccccc43)cnc2c1-n1cc(Cl)cn1 [Example 447]
EC50 (C. elegans Slo-1a): 398 nM | EC50 [1]: < 10 µg/mL | chromatographic logP [2]: 4.13

COc1cccc(-c2c(C)nn3c(C(C)C)c(C(=O)N[C@H]4CCOc5ccccc54)cnc23)c1Cl [Example 247]
EC50 (C. elegans Slo-1a): 10 nM | EC50 [1]: < 1 µg/mL | chromatographic logP [2]: 4.19

Cc1nn2c(C(C)C)c(C(=O)N[C@H]3CCCc4ccccc43)cnc2c1-c1cc(Cl)c(Cl)c(Cl)c1 [Example 125]
EC50 (C. elegans Slo-1a): 25.1 nM | EC50 [1]: < 1 µg/mL | chromatographic logP [2]: 6.86

Cc1nn2c(C(C)C)c(C(=O)N[C@H]3CCOc4ccccc43)cnc2c1-c1cccc(N2CC(C#N)C2)c1 [Example 444]
EC50 (C. elegans Slo-1a): 15.8 nM | EC50 [1]: < 10 µg/mL | chromatographic logP [2]: 3.91

Cc1nn2c(C(C)C)c(C(=O)N[C@H]3CCc4ccccc43)cnc2c1-c1cccc(OC(F)(F)F)c1 [Example 309]
EC50 (C. elegans Slo-1a): 31.6 nM | EC50 [1]: < 10 µg/mL | chromatographic logP [2]: 5.48
